The record followed here is patent US9193669B2, “Compounds for treating ophthalmic diseases and disorders” (Acucela Inc., priority 2008, dated 2015).

This assay deals with T1, isomerase (Mus musculus, UniProt Q91ZQ5).
T1 construct: The recovery of 11-cis-retinal after bleaching can be used to estimate the activity of isomerase in vivo; from tissue; host or cells: eyes of living mice (CD-1; Balb/c also named)
T1 sequence (Q91ZQ5 1-533): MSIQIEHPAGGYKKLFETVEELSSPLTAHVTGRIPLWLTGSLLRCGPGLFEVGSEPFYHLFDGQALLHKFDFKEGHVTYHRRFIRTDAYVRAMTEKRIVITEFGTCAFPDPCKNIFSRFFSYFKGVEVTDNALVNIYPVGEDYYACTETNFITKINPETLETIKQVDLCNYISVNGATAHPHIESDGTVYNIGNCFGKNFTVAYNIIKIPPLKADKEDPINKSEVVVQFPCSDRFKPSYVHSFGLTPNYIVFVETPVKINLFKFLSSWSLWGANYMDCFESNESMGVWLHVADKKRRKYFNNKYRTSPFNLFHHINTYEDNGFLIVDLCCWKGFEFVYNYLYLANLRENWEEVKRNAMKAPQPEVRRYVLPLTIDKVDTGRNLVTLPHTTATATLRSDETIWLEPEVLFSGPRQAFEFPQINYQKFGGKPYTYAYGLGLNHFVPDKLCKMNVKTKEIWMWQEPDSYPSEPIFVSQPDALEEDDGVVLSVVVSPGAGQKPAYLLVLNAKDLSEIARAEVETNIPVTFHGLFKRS
Description: In vivo murine isomerase assay. More on the design: species or system mice. The following applies: mouse, po, 4 h; read-out: % Inibition 1 mg/kg, 4 h. As for the experimental part: The capability of compounds described herein to inhibit isomerase was determined by an in vivo murine isomerase assay. Brief exposure of the eye to intense light (“photobleaching” of the visual pigment or simply “bleaching”) is known to photo-isomerize almost all 11-cis-retinal in the retina. The recovery of 11-cis-retinal after bleaching can be used to estimate the activity of isomerase in vivo. Delayed recovery, as represented by lower 11-cis-retinal oxime levels, indicates inhibition of isomerization reaction. Procedures were performed essentially as described by Golczak et al., Proc. Natl. Acad. Sci. […] Mice were gavaged with the compounds described in the present disclosure. After about 2-24 hours in the dark, the mice were exposed to photobleaching of about 5,000 lux of white light for 10 minutes. The mice were allowed to recover for about 2 hours in the dark. The animals were then sacrificed by carbon dioxide inhalation. Retinoids were extracted from the eye and the regeneration of 11-cis-retinal was assessed at various time intervals. […] After the mice were sacrificed, the eyes were immediately removed and placed in liquid nitrogen for storage. The eyes were placed in about 500 μL of bis-tris propane buffer (10 mM, pH˜7.3) and about 20 μl of 0.8M hydroxylamine (pH˜7.3). The eyes were cut up into small pieces with small iris scissors and then thoroughly homogenized at 30000 rpm with a mechanical homogenizer (Polytron PT 1300 D) in the tube until no visible tissue remains. About 500 μL of methanol and about 500 μL of heptane was added to each tube. The tubes were attached to a vortexer so that the contents are mixed thoroughly for about 15 minutes in room temperature. […] The samples were analyzed on an Agilent 1100 HPLC system with normal phase column: SILICA (Beckman Coutlier, dp 5 μm, […]). […] Loading volume for each sample was about 100 μl; detection wavelength is 360 nm. The area under the curve for 11-cis-retinal oxime was calculated by Agilent Chemstation software and recorded manually. Data processing was performed using Prizm software. Positive control mice (no compound administered) were sacrificed fully dark-adapted and the eye retinoids analyzed. Light (bleached) control mice (no compound administered) were sacrificed and retinoids isolated and analyzed immediately after light treatment. A time course study was also performed to determine the isomerase inhibitory activity of compounds of the present disclosure. Female or male mice (such as Balb/c mice) (at least 4/group) received 0 to about 5 mg of compounds (in water) per kg bodyweight orally, by gavage. The animals were then “photo-bleached” (about 5000 Lux white light for about 10 minutes) at about 2, 4, 8, 16 and 24 hours after dosing, and returned to darkness to allow recovery of the 11-cis-retinal content of the eyes. Mice were sacrificed about 2 hours after bleaching, eyes were enucleated, and retinoid content was analyzed by HPLC. A dose response in vivo isomerase inhibition study is performed with compounds of the present disclosure. Male or female mice (such as Balb/c mice)(at least about 8/group) are dosed orally with about 0.01 to 25 mg/kg of the compounds of HCl salts of the compounds in sterile water as solution, and photobleached about 4 hours after dosing. Recovery and retinoid analysis is performed as described above. Dark control mice are vehicle-only treated, sacrificed fully dark adapted without light treatment, and analyzed. […]
In the case of `NCCC(=O)c1cccc(NCC2CCCC2)c1` [Example 40, 3-Amino-1-(3-(cyclopentylmethylamino)phenyl)propan-1-one], the inhibition in vivo at 1 mg/kg was found to be 1.24 ± 9.74%.
Regarding `NCCCc1cccc(NCCCc2ccccc2)c1` [Example 64, 3-(3-Aminopropyl)-N-(3-phenylpropyl)aniline], the inhibition in vivo at 1 mg/kg was 3.83%.
Consider `NCCC(=O)c1cccc(NCC2CCCCC2)c1` [Example 12, 3-amino-1-(3-(cyclohexylmethylamino)phenyl)propan-1-one], for which the inhibition in vivo at 1 mg/kg turned out to be 9.16 ± 9.41%.
On to `[2H]/C(=C(/[2H])C(O)(CCC)CCC)c1cccc(C(O)CCN)c1` (stereo not shown) [Example 117, (E)-4-(2-(3-(3-Amino-1-hydroxypropyl)phenyl)-1,2-dideuterovinyl)heptan-4-ol], for which the inhibition in vivo at 1 mg/kg came out at 97.9 ± 1.5%.
As to `[2H]C([2H])(CN)C(O)c1cccc(NCC2CCCCC2)c1` (stereo not shown) [Example 82, 3-Amino-1-(3-(cyclohexylmethylamino)phenyl)-2,2-dideuteropropan-1-ol], the inhibition in vivo at 1 mg/kg stood at 75.1 ± 8.03%.
For `NCCCc1cccc(NCC2CCCC2)c1` [Example 31, 3-(3-aminopropyl)-N-(cyclopentylmethyl)aniline] the value was 9.52 ± 4.6%; for `NCCC(=O)c1cccc(NS(=O)(=O)c2ccccc2)c1` [Example 103, N-(3-(3-Aminopropanoyl)phenyl)benzenesulfonamide], -2.77 ± 6.53%; for `NCCC(=O)c1cccc(NCCCc2ccccc2)c1` [Example 60, 3-Amino-1-(3-(3-phenylpropylamino)phenyl)propan-1-one], -1.33 ± 5.2%.
Turning to `CCC(CC)CNc1cccc(C(=O)CCN)c1` [Example 36, 3-Amino-1-(3-(2-ethylbutylamino)phenyl)propan-1-one], the inhibition in vivo at 1 mg/kg was -1.4 ± 2.78%.
For `[2H]C([2H])(N)CC(O)c1cccc(C#CC2(O)CCCCC2)c1` (stereo not shown) [Example 121, 1-((3-(3-amino-3,3-dideutero-1-hydroxypropyl)phenyl)ethynyl)cyclohexanol] the value was 27.5 ± 9.6%; for `CCC(CC)CNc1cccc(CCCN)c1` [Example 33, 3-(3-aminopropyl)-N-(2-ethylbutyl)aniline], 4.32 ± 7.88%; for `CCCC(CCC)C(=O)Nc1cccc(C(O)CCN)c1` (stereo not shown) [Example 73, N-(3-(3-Amino-1-hydroxypropyl)phenyl)-2-propylpentanamide], -1.24 ± 4.43%.
In the case of `NCCC(O)c1cccc(NS(=O)(=O)c2ccccc2)c1` (stereo not shown) [Example 101, N-(3-(3-Amino-1-hydroxypropyl)phenyl)benzenesulfonamide], the inhibition in vivo at 1 mg/kg worked out at 1.82 ± 10.5%.
On to `[2H]C(O)(CCN)c1cccc(NCC2CCCCC2)c1` (stereo not shown) [Example 81, 3-Amino-1-(3-(cyclohexylmethylamino)phenyl)-1-deuteropropan-1-ol], for which the inhibition in vivo at 1 mg/kg stood at 85 ± 3.06%.
On to `CCC(CC)CNc1cccc(C(O)CCN)c1` (stereo not shown) [Example 35, 3-amino-1-(3-(2-ethylbutylamino)phenyl)propan-1-ol], for which the inhibition in vivo at 1 mg/kg stood at 95.2 ± 1.41%.
`NCCC(O)c1cccc(NCCCCCOCc2ccccc2)c1` (stereo not shown) [Example 41, 3-Amino-1-(3-(5-(benzyloxy)pentylamino)phenyl)propan-1-ol]: the inhibition in vivo at 1 mg/kg was -0.34 ± 6.12%.
For `[2H]C([2H])(CN)C(O)c1cccc(NS(=O)(=O)C2CCCCC2)c1` (stereo not shown) [Example 58, N-(3-(3-amino-2,2-dideutero-1-hydroxypropyl)phenyl)cyclohexanesulfonamide], the inhibition in vivo at 1 mg/kg is 6.94 ± 5.15%.
As for `NCCC(O)c1cccc(NC(=O)C2CCCCC2)c1` (stereo not shown) [Example 15, N-(3-(3-amino-1-hydroxypropyl)phenyl)cyclohexanecarboxamide], the inhibition in vivo at 1 mg/kg is -0.003 ± 19.4%.
Turning to `[2H]C([2H])(CN)C(O)c1cccc(C#CC2CCCCC2)c1` (stereo not shown) [Example 122, 3-amino-1-(3-(cyclohexylethynyl)phenyl)-2,2-dideuteropropan-1-ol], the inhibition in vivo at 1 mg/kg was determined as 84.9 ± 4.5%.
To `NCCC(=O)c1cccc(NC(=O)C2CCCCC2)c1` [Example 16, N-(3-(3-aminopropanoyl)phenyl)cyclohexanecarboxamide] belongs 17.1 ± 5.32%.
To `NCCC(O)c1cccc(NCCCc2ccccc2)c1` (stereo not shown) [Example 59, 3-Amino-1-(3-(3-phenylpropylamino)phenyl)propan-1-ol] belongs 4.24 ± 13%.
Regarding `NCCC(O)c1cccc(NCC2CCCCC2)c1` (stereo not shown) [Example 11, 3-amino-1-(3-(cyclohexylmethylamino)phenyl)propan-1-ol], the inhibition in vivo at 1 mg/kg is 95.3 ± 2.7%.
Take `[2H]C([2H])(N)CC(O)c1cccc(C#CC2CCCCC2)c1` (stereo not shown) [Example 123, 3-amino-1-(3-(cyclohexylethynyl)phenyl)-3,3-dideuteropropan-1-ol]: the inhibition in vivo at 1 mg/kg came to 91.4 ± 2.5%.
For `CN(CC1CCCCC1)c1cccc(C(O)CCN)c1` (stereo not shown) [Example 90, 3-Amino-1-(3-((cyclohexylmethyl)(methyl)amino)phenyl)propan-1-ol] the value was 3.17 ± 4.97%.
To `[2H]C1([2H])C([2H])([2H])C([2H])([2H])C([2H])(C(=O)Nc2cccc(C(O)CCN)c2)C([2H])([2H])C1([2H])[2H]` (stereo not shown) [Example 93, N-(3-(3-Amino-1-hydroxypropyl)phenyl)-1,2,2,3,3,4,4,5,5,6,6-undecadeuterocyclohexanecarboxamide] belongs -0.53 ± 4.53%.
As for `NCCC(O)c1cccc(NCC2CCCC2)c1` (stereo not shown) [Example 39, 3-Amino-1-(3-(cyclopentylmethylamino)phenyl)propan-1-ol], the inhibition in vivo at 1 mg/kg was 69.9 ± 6.85%.
`COc1ccccc1CNc1cccc(C(=O)CCN)c1` [Example 48, 3-Amino-1-(3-(2-methoxybenzylamino)phenyl)propan-1-one]: the inhibition in vivo at 1 mg/kg was determined as 0.21 ± 8.88%.
As for `CCCCCNc1cccc(C(O)CCN)c1` (stereo not shown) [Example 13, 3-amino-1-(3-(pentylamino)phenyl)propan-1-ol], the inhibition in vivo at 1 mg/kg came to 1.98 ± 6.02%.
For `CCCCCNc1cccc(C(=O)CCN)c1` [Example 14, 3-amino-1-(3-(pentylamino)phenyl)propan-1-one] the value was 8.12 ± 16.2%; for `NCCC(O)c1cccc(NCCc2ccccc2)c1` (stereo not shown) [Example 49, 3-Amino-1-(3-(phenethylamino)phenyl)propan-1-ol], 4.54%.
To `COc1ccccc1CNc1cccc(C(O)CCN)c1` (stereo not shown) [Example 47, 3-Amino-1-(3-((2-methoxybenzyl)amino)phenyl)propan-1-ol] belongs 4.08 ± 4.84%; to `[2H]C([2H])(CN)C(O)c1cccc(NC(=O)C2CCCCC2)c1` (stereo not shown) [Example 57, N-(3-(3-amino-2,2-dideutero-1-hydroxypropyl)phenyl)cyclohexanecarboxamide], 2.01 ± 1.3%.
For `[2H]C([2H])(N)CC(O)c1cccc(NCC2CCCCC2)c1` (stereo not shown) [Example 83, 3-Amino-1-(3-(cyclohexylmethylamino)phenyl)-3,3-dideuteropropan-1-ol] the value was 89.5 ± 2.09%; for `CCCC(CCC)CNc1cccc(C(O)CCN)c1` (stereo not shown) [Example 37, 3-Amino-1-(3-(2-propylpentylamino)phenyl)propan-1-ol], 101.6 ± 0.49%.
